Paper PMC10761396, “Evaluation of new alternative methods for the identification of estrogenic, androgenic and steroidogenic effects: a comparative in vitro/in silico study” (Archives of Toxicology, 2023)
≈ marks a conversion by molar mass, not a printed value. Entries after “also recorded” stand apart in the source; their conditions may differ. Read-outs that look alike come from different tables or passages of the source.

Legend:
AR [1] = details: AR pathway model; ref Kleinstreuer et al (2017) 10.1021/acs.chemrestox.6b00347; cited from earlier work
Solubility = type: physicochemical
AR [2] = experiment: ToxCast AR assays and final ToxCast call; details: for Final "true" call (ToxCast): AR effects, from active assays, cytotoxicity and pathway model
From the text: (§1) A rich source of data can be found in the EPA's ToxCast database (US EPA). This contains ED data for ~ 1800 chemicals in more than 700 high-throughput assay endpoints that cover a range of high-level cell responses. The US EPA is running an Endocrine Disruption Screening Program (EDSP), with the aim of prioritising chemicals using high-throughput screening methods and computational toxicology approaches to evaluate thousands of chemicals for ED activities. The OECD framework for ED assessment (OECD [2018]) requires animal testing at higher levels, where relevant in vitro alternatives are missing e.g. for developmental, reproductive, neurological and immune effects. However, such follow-up testing is not possible for the cosmetics industry especially in the EU due to the complete animal testing ban which came into force in March 2013 (EU [2009]). Even for other industries, animal models are not suitable for assessing ED effects due to issues relating to ethics, capacity, speed and relevance (Patisaul et al. [2018]). Therefore, chemicals which cannot be evaluated using in vivo method must be assessed using alternative methods e.g. in silico and in vitro methods listed in Levels 1 and 2 of the framework described in the OECD 150 test guideline (OECD [2018]).
(§2) The performance of different in silico models for ED effects tends to be evaluated on single model for a single effect, such as ER or AR binding, agonism or antagonism (normally by the developer), or a limited number of models using multiple chemicals (Weyrich et al. [2022]). Multi-organisation collaborations have also evaluated multiple models for a specific effect e.g. ER (Mansouri et al. [2016]) and AR (Mansouri et al. [2020]) effects. Therefore, we have conducted a side-by-side comparison of multiple different in silico models covering three pathways in ED, namely ER, AR and aromatase inhibition and compared these with ToxCast-derived final calls, as well as with results from in vitro assays. The efficiency of the in silico models was evaluated as a metric for the ability of the in silico model to generate concrete predictions. […] In vivo data were available for some but not all chemicals; therefore, an evaluation of the performance of the methods was made by comparing the derived overall calls from in silico models with those from the ToxCast database. The final call for each chemical evaluated in the ToxCast assays was made by considering the active-flagged assays and the corresponding cytotoxicity levels, the ToxCast Pathway Model (Browne et al. [2015]) and the CERAPP Potency Level (Mansouri et al. [2016]) for ER effects and the ToxCast Pathway Model (Kleinstreuer et al. [2017]) for AR effects (see Online Resource 1 Supplementary Tables 2, 4 and 6 for the outcome of the ER, AR and aromatase ToxCast assays, additional literature and final calls for each chemical and target).

H295R cells = experiment: H295R steroidogenesis assay (oestrogen and androgen production); type: cell-based, human; details: Homo sapiens, NCI-H295R, 48 h
Method: The in vitro H295R Steroidogenesis Assay is based on the human adenocarcinoma cell line, NCI-H295R, in which the human steroidogenesis pathway is fully functional (OECD 2022). The effect of the test chemical on the production of 17β-estradiol and testosterone is measured using ERα CALUX and AR CALUX technology.
The test chemical was tested in two independent assays, each in triplicate.

AR [3] = tested on: AR; set-up: method as in ToxCast; details: ref ToxCast, cited from earlier work; for ToxCast conclusion from assays result: AR sheet; for ToxCast 1: (Active assays), number of positive assays / assays run: ToxCast AR assays
ER [4] = experiment: ToxCast ER assays and final ToxCast call; details: for Final "true" call (ToxCast) ER: from active ToxCast assays, cytotoxicity, ToxCast Pathway Model and CERAPP Potency Level; for ToxCast result (ER): overall call from ToxCast data (Supplementary Table 2)
From the text: as §1, §2

ER [5] = tested on: ER; set-up: method as in Browne, et al (2015); details: ref Browne, et al (2015), cited from earlier work; for ToxCast Pathway Model (AUC): as agonist where given, value above 0.1 = significant interaction
aromatase [6] = tested on: aromatase; set-up: method as in US EPA ToxCast; details: ref US EPA ToxCast, cited from earlier work
ER [7] = tested on: ER; set-up: method as in US EPA ToxCast; details: ref US EPA ToxCast, cited from earlier work
aromatase [8] = experiment: ToxCast aromatase assays (TOX21_Aromatase_Inhibition) and final ToxCast call; type: cell-based; details: for ToxCast result: aromatase overall ToxCast call; for Final "true" call (ToxCast) Aromatase inhibition: from ToxCast assays
From the text: as §2
Aromatase represents only one enzyme involved in steroidogenesis (the conversion of androgens to oestrogens); therefore, the aromatase assay detects effects on 17β-oestradiol production only. […] It is a cell-based assay in which MCF-7 cells are incubated with the test chemical for 24 h before measuring aromatase activities indirectly via a luciferase-based reporter endpoint which is dependent on the binding of the oestradiol–ER complex to the oestrogen response element. A decrease in luciferase activity can occur as a result of direct inhibition of aromatase (preventing the production of oestradiol) or by preventing oestradiol from binding to the ER and thus the binding to the oestrogen RE which initiates the production of luciferase (Lui et al. [2008]).

ER [9] = tested on: ER; set-up: method as in Mansouri et al. 2016; details: ref Mansouri et al. 2016; cited from earlier work
human (non-selective) ER = experiment: ER radioligand ([3H]estradiol) receptor-binding assay
Method: The chemicals were tested for their ability to bind to different targets. […] Chemicals were incubated at 10 µM with cells overexpressing ER or AR for 24 h at 4°C, after which, the binding of the radiolabeled ligand ([^3H]estradiol for ER and [^3H]methyltrienolone for AR) was measured by liquid scintillation counting. An increase or decrease higher than 50% were considered to represent significant effects. Four chemicals were tested in additional incubations at several concentrations up to the maximum soluble concentration for IC50 or EC50 determination for the associated target. Receptor binding was calculated as a % inhibition of the binding of a radioactively labeled ligand specific for each target.
Each test chemical was tested in a single assay in duplicate.

ERα [10] = biological target: T1, ERα (Homo sapiens, UniProt P03372); experiment: (anti-)ERα CALUX receptor transactivation assay; type: cell-based; set-up: expressed in transfected cells; host or cells: CALUX cells (U2-OS is named only for the cytotoxicity CALUX)
T1 sequence (P03372 1-595): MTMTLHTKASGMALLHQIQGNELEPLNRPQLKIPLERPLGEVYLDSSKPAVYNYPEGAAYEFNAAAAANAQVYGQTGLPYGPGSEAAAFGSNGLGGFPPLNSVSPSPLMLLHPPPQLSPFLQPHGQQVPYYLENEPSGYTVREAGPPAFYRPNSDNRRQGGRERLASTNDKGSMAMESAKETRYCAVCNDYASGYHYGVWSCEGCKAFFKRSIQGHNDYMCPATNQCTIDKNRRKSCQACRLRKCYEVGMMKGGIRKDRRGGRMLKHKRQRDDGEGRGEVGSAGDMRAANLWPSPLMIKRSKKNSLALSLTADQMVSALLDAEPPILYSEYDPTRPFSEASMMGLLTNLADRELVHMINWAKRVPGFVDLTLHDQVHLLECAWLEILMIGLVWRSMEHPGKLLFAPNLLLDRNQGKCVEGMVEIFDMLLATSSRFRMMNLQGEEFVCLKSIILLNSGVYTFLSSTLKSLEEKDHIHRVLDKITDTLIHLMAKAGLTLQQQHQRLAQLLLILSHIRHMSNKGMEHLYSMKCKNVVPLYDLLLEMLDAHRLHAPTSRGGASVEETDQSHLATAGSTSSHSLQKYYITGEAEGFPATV
Method: The human CALUX® assays were used to measure the impact of test compounds on estrogen and androgen pathways. […] Chemicals can activate (or inactivate, in the case of an antagonistic activity) a ligand-specific pathway by binding to the receptor (ER, AR), after which the receptor-ligand complex binds to specific DNA REs […], resulting in increased (or decreased) cellular expression of a marker protein (e.g., luciferase).
Chemicals were dissolved and diluted in DMSO. […] The cytotoxicity of each test chemical was assessed using the U2-OS based cytotoxicity CALUX bioassay. Concentrations causing >20% reduction of luminescence were considered cytotoxic. […] Luciferase production was quantified by measuring luminescence following addition of luciferin. For antagonist assays, a fixed concentration of receptor agonist was co-incubated with a range of concentrations of the test chemical. […] For the AR assays, dihydrotestosterone was the positive control for agonistic effects and flutamide was the positive control for antagonist effects.
Each test chemical was tested in triplicates in two independent experiments.

ERα [11] = biological target: T1, ERα; experiment: YES (Yeast oestrogen screen) assay, agonist and antagonist mode; details: YES antagonist assay
Method: The YES/YAS XL (Xtra Lyticase) assay kit from Xenometrix AG (Allschwil, Switzerland) was conducted according to the Supplier’s instructions.
In the YES assay, human ERα is integrated in the yeast (Saccharomyces cerevisiae) chromosome, and for the YAS assay human AR is integrated (Routledge and Sumpter 1996; Sohoni and Sumpter 1998). […] This enzyme then converts a yellow substrate to a purple metabolite, which can be measured colorimetrically.
Growing yeast cells stably transformed with either hERα (YES) or hAR (YAS) and a β-galactosidase reporter system were exposed to a range of concentrations of each test compound. […] The positive control chemicals for agonistic effects were 17-β estradiol for YES and 5α-dihydrotestosterone for YAS. […] A combination of a fixed concentration of positive control and a range of concentrations of each test chemical were tested. The cells were incubated with each treatment for 18 h at 31°C. The cells were lysed in the presence of the yellow β-galactosidase-substrate, chlorophenol red-β-D-galactopyranoside (CPRG). Yeast cell growth was assessed prior to addition of the lysis buffer by measuring the absorbance at 690 nm. The production of the red metabolite of CPRG was determined by measuring the absorbance at 570 nm. It was corrected for diffraction by cells and debris by a simultaneous measurement at 690 nm. The results were evaluated for estrogenic and androgenic agonistic and antagonistic activity, as well as for yeast growth inhibition or cytotoxicity.
An IR value ≥ IR10 in the YES or YAS agonist assay indicates an agonistic effect (IR10 is defined as the IR which is 10% of (IR max - IR solvent) above the IR solvent. An IR value ≤ IR50 in the YES or YAS antagonist assay indicates a possible antagonistic effect (IR50 is defined as 50% of (IR control - IR solvent), where the IR control is at the corresponding fixed concentration of agonist used: 3.3 × 10^-10 M 17-β estradiol and 3.3 × 10^-9 M 5α-dihydrotestosterone, respectively). […]

aromatase [12] = tested on: aromatase; set-up: method as in Lu et al. [2012]; details: recombinant and placental microsomal preparations; ref Lu et al. [2012]; cited from earlier work
[13] = read-out: Steroidogenesis Androgenicity LEC
[14] = read-out: Steroidogenesis Estrogenicity LEC

## CCCCOC(=O)c1ccccc1C(=O)OCc1ccccc1 [BBP, benzyl butyl phthalate]
AR [1]
  ToxCast Pathway Model (AUC): AUC = 0, then there is no significant interaction.
Solubility
  solubility: ~10 µM (≈ 3.12 µg/mL)
AR [2]
  Final "true" call (ToxCast): Inconclusive
H295R cells; [13]
  minimal effective concentration: > 10 µM
H295R cells; [14]
  minimal effective concentration: > 10 µM
AR [3]
  ToxCast conclusion from assays result: Endocrine Disruption Potential.Significant Estrogen Receptor activity seen
  ToxCast 1: (Active assays), number of positive assays / assays run: 2/14 positive
AR [3]; TOX21_AR_LUC_MDAKB2_Antagonist_0.5nM_R1881
  efficacy (assays Comments): Boarderline: less than 50% efficacy (38.4%)
AR [3]; UPITT_HCI_U2OS_AR_TIF2_Nucleoli_Antagonist
  efficacy (assays Comments): Boarderline: less than 50% efficacy (48.9%)
ER [4]
  Final "true" call (ToxCast) ER: Positive for agonism
  ToxCast result (ER): ER agonist only
ER [5]
  ToxCast Pathway Model (AUC): 0.18
  ToxCast Pathway Model interaction: significant interaction
Aromatase [6]
  ToxCast (Aromatase assays), positive/total: 0/2 positive
ER [7]
  ToxCast 1: (Active assays), positive/total ER assays: 14/21 positive
  ToxCast conclusion from assays result: Endocrine Disruption Potential.Significant Estrogen Receptor activity seen
Aromatase [8]
  ToxCast result: Negative
  Final "true" call (ToxCast) Aromatase inhibition: Negative
ER [9]
  CERAPP Potency Level: Very weak antagonist

## CCN(CC)c1ccc(C(=O)c2ccccc2C(=O)O)c(O)c1 [DEABA, 2-(4-(diethylamino)-2-hydroxybenzoyl)benzoic acid]
AR [2]
  Final "true" call (ToxCast): Negative
AR [2]; AR overall call from Supplementary Table 4
  ToxCast result: Negative
AR [2]; from ToxCast assays and ToxCast Pathway Model
  Final "true" call (ToxCast) AR: Negative
H295R cells; [13]
  minimal effective concentration: > 100 µM
H295R cells; [14]
  minimal effective concentration: > 100 µM
AR [3]
  ToxCast conclusion from assays result: Endocrine Disruption Potential.Significant Estrogen Receptor activity seen
  ToxCast 1: (Active assays), number of positive assays / assays run: 1/9 positive
AR [3]; TOX21_AR_BLA_Antagonist_ratio
  efficacy (assays Comments): Boarderline: less than 50% efficacy (38.5%)
ER [4]
  Final "true" call (ToxCast) ER: Negative
  ToxCast result (ER): Negative
Human (non-selective) ER
  ER binding outcome: negative
Human (non-selective) ER; single-dose screening, 10 µM
  inhibition of control specific binding to the ER: less than -25%
ERα [10]
  Lowest Effective Concentration (LEC), ER agonism: 56 µM
Aromatase [6]
  ToxCast (Aromatase assays), positive/total: 0/2 positive
ERα [11]
  ER antagonism in the YES assay: inconclusive
ER [7]; borderline: less than 50% efficacy
  ToxCast 1: (Comments), efficacy: Boarderline: less than 50% efficacy (28.5%)
ER [7]; each listed assay name = active-flagged assay
  ToxCast 1: (Active assays), ER assay listed as active: TOX21_ERa_LUC_VM7_Agonist
ER [7]
  ToxCast 1: (Active assays), positive/total ER assays: 1/8 positive
  ToxCast conclusion from assays result: Endocrine Disruption Potential.Significant Estrogen Receptor activity seen
Aromatase [8]
  ToxCast result: Negative
  Final "true" call (ToxCast) Aromatase inhibition: Negative
ER [9]
  CERAPP Potency Level: Negative

## CC/C(=C(\c1ccccc1)c1ccc(OCCNC)cc1)c1ccccc1 [N-desmethyl-tamoxifen]
Aromatase [12]
  aromatase inhibitory action: potent inhibitors

## CC/C(=C(\c1ccccc1)c1ccc(OCCN(C)C)cc1)c1ccccc1 [Tamoxifen, reference compound]
AR [1]
  ToxCast Pathway Model (AUC): AUC = 0.042, then there is no significant interaction.
Aromatase [12]
  aromatase inhibitory action: no appreciable inhibition
AR [2]
  Final "true" call (ToxCast): Inconclusive
H295R cells; [13]
  minimal effective concentration: > 3.16 µM
H295R cells; [14]
  minimal effective concentration: > 1 µM
AR [3]
  ToxCast conclusion from assays result: Endocrine Disruption Potential.Significant Estrogen Receptor activity seen
  ToxCast 1: (Active assays), number of positive assays / assays run: 9/17 Positive
AR [3]; comment on all active AR assays
  ToxCast 1: (assays Comments): There is binding, but only one concentration above the baseline, (noisy data)
ER [4]
  Final "true" call (ToxCast) ER: Positive for agonism and antagonism
  ToxCast result (ER): ER agonist and antagonist
ER [5]
  ToxCast Pathway Model (AUC): 0.45
  ToxCast Pathway Model interaction: significant interaction
Aromatase [6]; each listed assay name = active assay
  ToxCast (Aromatase assays), assay listed as active: TOX21_Aromatase_Inhibition; also recorded: TOX21_Aromatase_Inhibition_viability
ER [7]
  ToxCast 1: (Active assays), positive/total ER assays: 19/21 positive
  ToxCast conclusion from assays result: Endocrine Disruption Potential.Significant Estrogen Receptor activity seen
Aromatase [8]
  ToxCast result: Positive
  Final "true" call (ToxCast) Aromatase inhibition: Positive
ER [9]
  CERAPP Potency Level: Moderate antagonist

## CC/C(=C(\c1ccc(O)cc1)c1ccc(OCCNC)cc1)c1ccccc1 [endoxifen]
Aromatase [12]
  aromatase inhibitory action: potent inhibitors
